Assay results published in article PMC6631119, “Nasal Administration and Plasma Pharmacokinetics of Parathyroid Hormone Peptide PTH 1-34 for the Treatment of Osteoporosis” (Pharmaceutics, 2019).
Read-outs that look alike come from different tables or passages of the source.

Legend:
[1] = conscious rats, nasal liquid formulation with Solutol HS15 (10%), first 2 h after administration; cited from earlier work
[2] = human volunteers, nasal powder formulations with Solutol HS15 compared to subcutaneous injection of hGH; cited from earlier work
From the text: With the aim of improving upon the pharmacokinetics of the liquid nasal spray in humans, our continued research evaluated a bioadhesive powder formulation within a large animal (ovine) model. This is a model known to be highly representative of intranasal drug delivery that closely replicates the clinical findings. […] Likewise, we have published o ...

[3] = Healthy human volunteer plasma pharmacokinetics of PTH 1-34 (open cross-over, ELISA); type: in vivo; settings: human
Experimental: An open cross-over clinical IMP (investigative medicinal product) study was conducted in seven healthy female subjects aged over 55 years (mean age 67.7, range 58 to 81 years). Each participant provided informed consent in accordance with ethical committee requirements and good clinical practice. Pre-study screening assessments were carried out within 21 days of the participants receiving their first dose (Supplementary Materials: Section S1). Inclusion and exclusion criteria were applied (Supplementary Materials: Section S2). Participants were admitted to the study centre on the morning of dosing, having abstained from alcohol and smoking for at least 24 h previously and fasted from midnight. Participants were given a light meal on arrival. A cannula was then positioned in the participant’s arm or hand to facilitate the collection of blood samples. The pre-dose sample was taken. Participants received a single subcutaneous injection of 20 μg teriparatide into the abdomen at their first trial visit. Following a seven day wash out period, each participant self-administered 90 μg PTH 1-34 from the nasal spray formulation using the Rexam SP270 nasal spray device; the patients had previously been trained in operation of the Rexam device. Any episodes of sneezing after administration of the nasal formulation were recorded. The nasal spray formulation contained Tc-99m-DTPA, 3–5 MBq per Rexam SP270 nasal spray dose, resulting in an effective radiation dose of less than 0.14 mSv to each participant.
Following either subcutaneous or intranasal dosing, 10 mL blood samples (Becton Dickinson sodium heparin) were taken at 5, 15, 30, 60 120, 180, 240, 300 and 360 min. After each sample was taken, the cannula was flushed with 10 mL 0.9% saline. Blood was stored on ice and centrifuged within 30 min to prepare plasma (4 °C, 1100–1300 g, 10 min). These samples were stored at −20 °C before dispatching to Simbec Research Ltd. (Merthyr Tydfil, UK) for quantification by validated ELISA, in compliance with The UK Good Laboratory Practice Regulations 1999 (Statutory Instrument No. 310 6) and subsequent amendment, OECD Principles of Good Laboratory Practice (Paris 1998) and EC Commission Directive 2004/10/EC of February 2004.
Pharmacokinetic data were analysed using Phoenix® WinNonlin® 5.1 (Certara USA, Inc., Princeton, NJ, USA) from quantified PTH 1-34 in the plasma, using recorded sampling times. Summary statistics (mean, median, SD, coefficient of variation [CV%], minimum, maximum, n) and the following plasma pharmacokinetic parameters were calculated: • Cmax • Tmax • Terminal half-life (t1/2) • AUC to 2 h (AUC0–2h) • AUC to last measured time point (AUClast) and corresponding Frel for nasal formulation

[4] = cited from earlier work
[5] = human, subcutaneous injection, estimated

Tmax ([3]; female, plasma, sc, 20 ug, healthy female volunteers aged over 55 y, single 20 μg teriparatide subcutaneous injection into abdomen (Forsteo pen), plasma ELISA, mean of n = 7) | AUC(0-t) ([3]; female, plasma, sc, 20 ug, healthy female volunteers aged over 55 y, single 20 μg teriparatide subcutaneous injection into abdomen (Forsteo pen), plasma ELISA, mean of n = 7, read-out: AUC0–2h (converted)) | AUC(0-t) ([3]; female, plasma, sc, 20 ug, healthy female volunteers aged over 55 y, single 20 μg teriparatide subcutaneous injection into abdomen (Forsteo pen), plasma ELISA, mean of n = 7, read-out: AUC0–last (converted)) | Cmax ([3]; female, plasma, sc, 20 ug, healthy female volunteers aged over 55 y, single 20 μg teriparatide subcutaneous injection into abdomen (Forsteo pen), plasma ELISA, mean of n = 7, read-out: Cmax) | time by which teriparatide concentrations returned to zero ([3]; 20 μg teriparatide subcutaneous injection) | elimination t1/2 ([3]; 20 μg teriparatide subcutaneous injection, mean) | half-life ([3]; sc, 20 ug, healthy female volunteers aged over 55 y, single 20 μg teriparatide subcutaneous injection into abdomen (Forsteo pen), plasma ELISA, mean of n = 7, read-out: t½) | Molecule | relative bioavailability [1] | relative bioavailability [2] | absolute bioavailability of subcutaneous injection ([4]; human subjects, subcutaneous injection into the abdominal wall, intravenous injection 100%) | prolongation in the time to reach peak concentration (Tmax), thigh as opposed to abdomen [4, 5] | reduction in maximum plasma teriparatide concentrations (Cmax), thigh as opposed to abdomen [4, 5] | slower rate of absorption, injection into the thigh as opposed to the abdomen [4, 5]
– | – | – | – | – | – | – | hGH: human growth hormone (MW 22kDa), given nasally with Solutol HS15 in earlier studies | 49% | about 3% | – | – | – | –
21.4 min | 0.29 ng·h/mL | 0.345 ng·h/mL | 0.253 ng/mL | ≤ 6 h | approximately 1 h | 64.8 min | CC[C@H](C)[C@H](NC(=O)[C@H](CCC(=O)O)NC(=O)[C@H](CO)NC(=O)[C@@H](NC(=O)[C@@H](N)CO)C(C)C)C(=O)N[C@@H](CCC(N)=O)C(=O)N[C@@H](CC(C)C)C(=O)N[C@@H](CCSC)C(=O)N[C@@H](Cc1cnc[nH]1)C(=O)N[C@@H](CC(N)=O)C(=O)N[C@@H](CC(C)C)C(=O)NCC(=O)N[C@@H](CCCCN)C(=O)N[C@@H](Cc1cnc[nH]1)C(=O)N[C@@H](CC(C)C)C(=O)N[C@@H](CC(N)=O)C(=O)N[C@@H](CO)C(=O)N[C@@H](CCSC)C(=O)N[C@@H](CCC(=O)O)C(=O)N[C@@H](CCCN=C(N)N)C(=O)N[C@H](C(=O)N[C@@H](CCC(=O)O)C(=O)N[C@@H](Cc1c[nH]c2ccccc12)C(=O)N[C@@H](CC(C)C)C(=O)N[C@@H](CCCN=C(N)N)C(=O)N[C@@H](CCCCN)C(=O)N[C@@H](CCCCN)C(=O)N[C@@H](CC(C)C)C(=O)N[C@@H](CCC(N)=O)C(=O)N[C@@H](CC(=O)O)C(=O)N[C@H](C(=O)N[C@@H](Cc1cnc[nH]1)C(=O)N[C@@H](CC(N)=O)C(=O)N[C@@H](Cc1ccccc1)C(=O)O)C(C)C)C(C)C [teriparatide] | – | – | up to 95% | 1.5 min | 18% | 21%
